Measurements reported in patent publication US11730743B2, “Protection of cells from degeneration and treatment of geographic atrophy” (University of Kentucky Research Foundation, priority 2012, dated 2023).

What was measured:
Dicer1f/f mice = assay: RPE degeneration induced by subretinal AAV1-BEST1-Cre (DICER1 loss); type: in vivo; settings: inhibitor intravitreous
Method: Immunolabeling. Human eyes fixed in 2-4% paraformaldehyde were prepared as eyecups, cryoprotected in 30% sucrose, embedded in optimal cutting temperature compound (Tissue-Tek OCT; Sakura Finetek), and cryosectioned into 10 μm sections. Depigmentation was achieved using 0.25% potassium permanganate and 0.1% oxalic acid. Immunohistochemical staining was performed with the rabbit antibody against NLRP3 (1:100, Sigma Aldrich) or rabbit antibody against Caspase-1 (prediluted, AbCam). Isotype IgG was substituted for the primary antibody to assess the specificity of the staining. Bound antibody was detected with biotin-conjugated secondary antibodies, followed by incubation with ABC reagent and visualized by Vector Blue (Vector Laboratories). Levamisole (Vector Laboratories) was used to block endogenous alkaline phosphatase activity. Slides were washed in PBS, counterstained with neutral red (Fisher Scientific), rinsed with deionized water, air dried, and then mounted in Vectamount (Vector Laboratories). Fluorescent labeling of human tissue was performed with the rabbit antibody against PYCARD (1:50, Clone N-15, Santa Cruz Biotechnology). Immunolabeling was visualized by fluorescently conjugated anti-rabbit secondary antibody (Invitrogen). Tissue autofluorescence was quenched by incubating the sections in 0.3% Sudan black (Fisher Scientific). […]

Caspase-3 = Caspase-3 activation in the RPE of wild-type mice; type: in vivo; settings: inhibitor intravitreous
Method: Drug treatments. siRNAs formulated in siRNA buffer (20 mM KCL, 0.2 mM MgCl2 in HEPES buffer at pH 7.5; Dharmacon) or phosphate buffered saline (PBS; Sigma-Aldrich); the TLR4 antagonist Ultra Pure Rhodobacter sphaeroides LPS (LPS-RS, InvivoGen), a peptide inhibitor of MyD88 homodimerization IMG-2005 (IMGENEX), control inhibitor (IMGENEX), recombinant IL-18 (Medical & Biological Laboratories), neutralizing rat antibodies against mouse IL-1β (IMGENEX), neutralizing rat antibodies against mouse IL-18 (Medical & Biological Laboratories), isotype control IgGs (R&D Systems or eBioscience as appropriate), Caspase-1 inhibitor Z-WEHD-FMK (R&D Systems), Caspase-3 inhibitor Z-DEVD-FMK (R&D Systems), Caspase control inhibitor Z-FA-FMK (R&D Systems), (2R,4R)-APDC (Enzo Life Sciences), Glipizide (Sigma-Aldrich), Glyburide (Sigma-Aldrich), and P2X7 receptor antagonist A438079 (Tocris Bioscience) were dissolved in phosphate buffered saline (PBS; Sigma-Aldrich) or dimethyl sulfoxide (DMSO; Sigma-Aldrich), and injected into the vitreous humor in a total volume of 1 μL with a 33-gauge Exmire microsyringe (Ito Corporation). […] As a control, Luc siRNA-chol (17+2 nt) was used with identical dosages.
Caspase-3 activity. The caspase-3 activity was measured using Caspase-3 Fluorimetric Assay (R&D Systems) according to the manufacturer's instruction.

wild-type mice = assay: Laser-induced choroidal neovascularization; type: in vivo; settings: intravitreous injection
[1] = tested on: Dicer1f/f mouse RPE cells; assay: miRNA quantification in Dicer1f/f mouse RPE cells treated with Ad-Cre; type: cell-based; settings: versus control peptide
From the text: miRNA quantification. Total RNA containing miRNAs was polyadenylated and reverse transcribed using universal primer using the All-In-One miRNA q-RT-PCR Detection Kit (GeneCopoeia) according to the manufacturer's specifications using a universal reverse primer in combination with forward primers for: mouse miR-184; mouse miR-221/222; mouse miR-320a; and mouse miR-484. miRNA levels were normalized to levels of U6 snRNA using the 2^−ΔΔct method. Detection was achieved by SYBR green qPCR with the following conditions: 95° C. for 10 min followed by 40 cycles of 95° C. for 10 s, 60° C. for 20 s and 72° C. for 20 s. Amplicon specificity was assessed by melt curve analysis and unique bands by agarose gel electrophoresis.
Adenoviral infection. Cells were plated at density of 15×10^3/cm^2 and after 16 h, at approximately 50% confluence, were infected with AdCre or AdNull (Vector Laboratories) with a multiplicity of infection of 1,000.

Substance: MyD88 inhibitory peptide: peptide inhibitor of MyD88 homodimerization IMG-2005 (IMGENEX)
- AAV1-BEST1-Cre-induced RPE degeneration (Dicer1f/f mice): blocked
- Alu RNA-induced Caspase-3 activation in the RPE (Caspase-3): inhibited
- laser-induced choroidal neovascularization (wild-type mice): reduced
- miRNA abundance in Dicer1 depleted cells [1]: No significant difference
